Test system: sensory panel
Experiment: Taste modifier properties in model systems (sensory panel of 15 persons, with/without noseclip)
Format: in vivo, human
Conditions: 100 ppm
Method: The sensory properties of various compositions comprising a monoester derivative of glucose were tested in various model systems, outlined in Table 14 below. [table] FIGS. 12 to 18 report the sweetness modifier properties of each of the following compounds (tested at 100 ppm in the various mode systems described above): glucose-6-O-octanoate, glucose-6-O-acetate, glucose-6-O-hexanoate, glucose-6-O-decanoate, glucose-6-O-hexadecanoate, glucose-6-O-oleate and glucose-6-O-oleyl derivative. The sensory properties were evaluated by a sensory panel consisting of15 persons, where the properties were evaluated with the subjects wearing a noseclip (With NC), and without a noseclip (Without NC). The subjects evaluate the perceived intensities of different sensory attributes on a linear scale (“0” note intense to “10” very intense) for the corresponding model mixtures without and with the compound at 100ppm. The differences of perceived intensities between the model mixtures with and without the compound are represented for each attribute. A statistical data treatment (unilateral paired student test) is achieved on each attribute to conclude on a significant or not significant taste modulation effect of the compound.

[1] = SG95-sour model system, with and without nose clip, significance 95%
[2] = SG95, with nose clip, significance 95%

CC(=O)OC[C@@H](O)[C@@H](O)[C@H](O)[C@@H](O)C=O [glucose-6-O-acetate]
Licorice taste modulation effect (SG95): slight masking effects | Sweet lingering modulation effect (SG95): slight masking effects | Bitterness modulation effect (model system not stated): slight bitterness masking effet | Sweet taste modulation effect (sucrose model mixture): slights enhancing sweetness effects | Taste modulation effects overall (tasted model systems): no significant modulation effects

CCCCCCCCCC(=O)OC[C@@H](O)[C@@H](O)[C@H](O)[C@@H](O)C=O [glucose-6-O-decanoate]
Licorice taste modulation effect (SG95-sour model system, without nose clip, significance 95%): significant licorice taste masking effect | Taste modulation effects (all the other model systems): no significant effects

CCCCCCCCCCCCCCCC(=O)OC[C@@H](O)[C@@H](O)[C@H](O)[C@@H](O)C=O [glucose-6-O-hexadecanoate]
Sweet taste modulation effect (SG95/sour model system, without nose clip, significance 95%): significant sweet masking effect | Round/thick/mouth coating modulation effect (grapefruit beverage, significance 95%): significant round/thick/mouth coating enhancing effect | Bitter taste modulation effect (with nose clip, significance 95%): significant bitter enhancing effect

CCCCCC(=O)OC[C@@H](O)[C@@H](O)[C@H](O)[C@@H](O)C=O [glucose-6-O-hexanoate]
Licorice taste modulation effect [1]: significant licorice taste masking effect | Sour taste modulation effect [1]: significant sour enhancing effect | Sweet lingering modulation effect [2]: significant sweet and sweet lingering masking effects | Sweet taste modulation effect [2]: significant sweet and sweet lingering masking effects | Sweet taste modulation effect (sweet and sour model system, with and without nose clip, significance 95%): significant sweet enhancing effect

CCCCCCCC/C=C\CCCCCCCC(=O)OC[C@@H](O)[C@@H](O)[C@H](O)[C@@H](O)C=O [glucose-6-O-oleate]
Licorice taste modulation effect [1]: significant licorice taste masking effect | Licorice taste modulation effect (SG95 model system, with and without nose clip, at least 95%): significant licorice taste masking effect | Bitter taste modulation effect (without nose clip, significance 95%): significant bitter enhancing effect | Sweet lingering modulation effect (without nose clip, significance 95%, model system not stated): significant sweet lingering masking effect

glucose-6-O-oleyl derivative
Sweet lingering modulation effect [2]: significant sweet lingering masking effect | Flavor intensity modulation effect (beverage grapefruit, significance 95%): significant flavor intensity masking effect
